# Assay results published in patent US7253155B2, “Combinations for the treatment of immunoinflammatory disorders” (CombinatoRx, Inc., priority 2001, dated 2007).
# Where “and” joins values, the source holds several entries; their conditions need not be identical. Equal values may be shown once.
# Test system: TNFα secretion
# Test: TNFα ELISA assay for TNFα suppressing activity in PMA/ionomycin-stimulated human white blood cells (pairwise combination dilution matrix)
# Type: cell-based
# Method: Stock solutions at 16 mg/ml of dipyridamole, and 1.6 mg/ml of fludrocortisone acetate (Sigma-Aldrich, St. Louis, Mo.; catalog numbers D9766 and F6127, respectively) were made in dimethylsulfoxide (DMSO). The dipyridamole master plates were made by adding 25 μl of the concentrated stock solution to columns 3, 9, and 15 (rows C through N) of a polypropylene 384-well storage plate that had been pre-filled with 75 μl of anhydrous DMSO. Using a TomTec Quadra Plus liquid handler, the 25 μl of dipyridamole stock solution was serially diluted four times into the adjacent columns (columns 4-7, 10-13, 16-19). […] The fludrocortisone master plates were made by adding 25 μl of the concentrated stock solution to the appropriate wells (row C, columns 3-8; row C, columns 9-14; row C, columns 15-20; row I, columns 3-8; row I, columns 9-14; row I, columns 15-20) of the appropriate master polypropylene 384-well storage plate. These master plates had been pre-filled with 75 μl of anhydrous DMSO. Using the TomTec Quadra Plus liquid handler, the 25 μl was serially diluted four times in the adjacent rows (rows D-G, and J-M). […] Master plates were sealed and stored at −20 C. until ready for use.
# The final dipyridamole/fludrocortisone combination plates were generated by transferring 1 μl from each of the dipyridamole and fludrocortisone master plates to a dilution plate containing 100 μl of media (RPMI; Gibco BRL, #11875-085), 10% Fetal Bovine Serum (Gibco BRL, #25140-097), 2% Penicillin/Streptomycin (Gibco BRL, #15140-122)) using the TomTec Quadra Plus liquid handler. This dilution plate was then mixed and a 10 μl aliquot transferred to the final assay plate, which had been pre-filled with 40 μl/well RPMI media containing the appropriate stimulant to activate TNFα secretion (see below).
# The compound dilution matrix was assayed using a TNFα ELISA method. Briefly, a 100 μl suspension of diluted human white blood cells contained within each well of a polystyrene 384-well plate (NalgeNunc) was stimulated to secrete TNFα by treatment with a final concentration of 10 ng/ml phorbol 12-myristate 13-acetate (Sigma) and […] ionomycin (Sigma). Various concentrations of each test compound were added at the time of stimulation. After 16-18 hours of incubation at 37° C. in a humidified incubator, the plate was centrifuged and the supernatant transferred to a white opaque polystyrene 384 well plate (NalgeNunc, Maxisorb) coated with an anti-TNF antibody (PharMingen, #18631D). After a two-hour incubation, the plate was washed (Tecan PowerWasher 384) with phosphate buffered saline (PBS) containing 0.1% Tween 20 (polyoxyethylene sorbitan monolaurate) and incubated for an additional one hour with another anti-TNF antibody that was biotin labeled (PharMingen, 18642D) and horseradish peroxidase (HRP) coupled to strepavidin (PharMingen, #13047E). After the plate was washed with 0.1% Tween 20/PBS, the HRP substrate (which contains luminol, hydrogen peroxide, and an enhancer such as para-iodophenol) was added to each well and light intensity measured using a LJL Analyst luminometer. Control wells contained a final concentration of 1 μg/ml cyclosporin A (Sigma).
# A compound matrix of dipyridamole and prednisolone were prepared according to the method of Example 1. The initial stock solution of dipyridamole was 16 mg/ml, and prednisolone was 1.6 mg/ml.
# The compound dilution matrix of Example 3, was assayed using the TNFα ELISA method of Example 2.
structure (smiles),measurement,setting,value
"OCCN(CCO)c1nc(N2CCCCC2)c2nc(N(CCO)CCO)nc(N3CCCCC3)c2n1 [Dipyridamole, 2,6-bis(diethanolamino)-4,8-dipiperidinopyrimido(5,4-d)pyrimidine]",% TNFα suppression from P/I-induced white blood cells,"primary screen, fludrocortisone 0.000 μM, dipyridamole 0.031 μM",3.68%
same,% TNFα suppression from P/I-induced white blood cells,"primary screen, fludrocortisone 0.000 μM, dipyridamole 0.124 μM",9.08%
same,% TNFα suppression from P/I-induced white blood cells,"primary screen, fludrocortisone 0.000 μM, dipyridamole 0.495 μM",13.21%
same,% TNFα suppression from P/I-induced white blood cells,"primary screen, fludrocortisone 0.000 μM, dipyridamole 1.982 μM",35.24%
same,% TNFα suppression from P/I-induced white blood cells,"primary screen, fludrocortisone 0.000 μM, dipyridamole 7.927 μM",66.37%
same,% TNFα suppression from P/I-induced white blood cells,"primary screen, prednisolone 0.000 μM, dipyridamole 0.031 μM",11.24%
same,% TNFα suppression from P/I-induced white blood cells,"primary screen, prednisolone 0.000 μM, dipyridamole 0.12 μM",12.63%
same,% TNFα suppression from P/I-induced white blood cells,"primary screen, prednisolone 0.000 μM, dipyridamole 0.50 μM",18.30%
same,% TNFα suppression from P/I-induced white blood cells,"primary screen, prednisolone 0.000 μM, dipyridamole 1.98 μM",27.21%
same,% TNFα suppression from P/I-induced white blood cells,"primary screen, prednisolone 0.000 μM, dipyridamole 7.93 μM",47.51%
same,% TNFα suppression from P/I-induced white blood cells,"secondary screen, fludrocortisone 0.000 μM, dipyridamole 0.031 μM",10.16%
same,% TNFα suppression from P/I-induced white blood cells,"secondary screen, fludrocortisone 0.000 μM, dipyridamole 0.062 μM",9.43%
same,% TNFα suppression from P/I-induced white blood cells,"secondary screen, fludrocortisone 0.000 μM, dipyridamole 0.124 μM",12.13%
same,% TNFα suppression from P/I-induced white blood cells,"secondary screen, fludrocortisone 0.000 μM, dipyridamole 0.248 μM",23.02%
same,% TNFα suppression from P/I-induced white blood cells,"secondary screen, fludrocortisone 0.000 μM, dipyridamole 0.495 μM",33.73%
same,% TNFα suppression from P/I-induced white blood cells,"secondary screen, fludrocortisone 0.000 μM, dipyridamole 0.991 μM",48.20%
same,% TNFα suppression from P/I-induced white blood cells,"secondary screen, fludrocortisone 0.000 μM, dipyridamole 1.982 μM",62.36%
same,% TNFα suppression from P/I-induced white blood cells,"secondary screen, fludrocortisone 0.000 μM, dipyridamole 3.964 μM",66.54%
same,% TNFα suppression from P/I-induced white blood cells,"secondary screen, fludrocortisone 0.000 μM, dipyridamole 7.927 μM",78.11%
"C[C@]12C=CC(=O)C=C1CC[C@@H]1[C@@H]2[C@@H](O)C[C@@]2(C)[C@H]1CC[C@]2(O)C(=O)CO [Prednisolone, 11beta,17alpha,21-trihydroxy-1,4-pregnadiene-3,20-dione]",% TNFα suppression from P/I-induced white blood cells,"primary screen, prednisolone 0.001 μM, dipyridamole 0.00 μM",4.86%
same,% TNFα suppression from P/I-induced white blood cells,"primary screen, prednisolone 0.004 μM, dipyridamole 0.00 μM",19.99%
same,% TNFα suppression from P/I-induced white blood cells,"primary screen, prednisolone 0.016 μM, dipyridamole 0.00 μM",37.84%
same,% TNFα suppression from P/I-induced white blood cells,"primary screen, prednisolone 0.063 μM, dipyridamole 0.00 μM",33.00%
same,% TNFα suppression from P/I-induced white blood cells,"primary screen, prednisolone 0.250 μM, dipyridamole 0.00 μM",38% and 38.25%
